Measured values taken from US20150157783A1, “METHOD TO SELECTIVELY BIND AND EXTRACT PHOSPHATE” (priority 2013, published 2015).

Legend:
[1] = UV-Vis titration, 1:1 binding of dihydrogen phosphate (Bu4N+ salt) in aqueous DMSO; conditions: for Binding constant (1:1) to H2PO4^−: 25% aqueous DMSO (v/v)
Protocol: (§1) Their interactions with anion salts were investigated in various aqueous dimethylsulfoxide (DMSO) mixtures.
(§2) Dilute non-aggregating solutions of a receptor S were titrated with a given anion X^− via a solution of its tetrabutylammonium salt and were monitored by UV-VIS spectrometery. UV absorption spectra (250-600 nm) were recorded three times for each solution and average values for each point were used; all of the spectra were background corrected by subtracting the absorption of the solvent. The wavelength with the maximum change in the concentration corrected absorption (Acor=A·C0/C, where C and C0 are the current and the initial receptor concentrations) was determined and then used for further analysis. Absorptions were plotted versus anion concentrations and the binding constants were determined by an iterative non-linear least squares curve fitting routine implemented in Excel using the equations below. Observed and calculated absorptions are given for each titration in the corresponding Tables and Figures.
(§3) K: binding constant for 1:1 complex formation
(§4) [S]:free receptor concentration
(§5) [S]0:total receptor concentration
(§6) [SX]:bound receptor concentration
(§7) [X]0:total anion concentration
(§8) A: absorption of the solution
(§9) A0:absorption of the initial solution (no anion added)
(§10) Amax:absorption of the solution if all the receptor was bound (infinite excess of anion at the initial receptor concentration)
(§11) In cases where there is a large excess of the anion, [X] about equals [X]0, and the plot of ΔAcor/[X] versus ΔAcor gives a straight line where the slope of the linear least squares fit of the data is the binding constant (K) and the intercept is K·ΔAmax:
(§12) with ΔAcor=(A−A0)·C0/C, where C and C0 are the current and the initial receptor concentrations; ΔAmax=Amax−A0.

[2] = UV-Vis titration, 1:1 binding of acetate (Bu4N+ salt) in aqueous DMSO; conditions: for Binding constant (1:1) to OAc^−: 25% aqueous DMSO (v/v)
Protocol: as §1, §2, §3, §4, §5, §6, §7, §8, §9, §10, §11, §12

[3] = UV-Vis titration, 1:1 binding of chloride (Bu4N+ salt) in aqueous DMSO; conditions: 25% aqueous DMSO (v/v)
Protocol: as §1, §2, §3, §4, §5, §6, §7, §8
A0:absorption of the initial solution (no anion added) […]

[4] = Solubility of receptor (qualitative)

Row | Compound | K1-bis/K1-mono for dihydrogen phosphate ([1]; 25% aqueous DMSO) | Binding constant (1:1) to H2PO4^− [1] [M⁻¹] | Binding constant (1:1) to OAc^− [2] [M⁻¹] | Binding constant K of 1:1 adduct with H2PO4^− ([1]; 0.5% DMSO-H2O mixture, 0-1 equivalents of anion) [M⁻¹] | association constant relative to the statistical value (36 M^−1) expected for one-arm binding of H2PO4^− ([1]; 25% aqueous DMSO) | acetate binding strength relative to 1-mono ([2]; 25% aqueous DMSO) | Binding constant (1:1) to Cl^− [3] [M⁻¹] | solubility [4]
1 | O=[N+]([O-])c1ccc(NC(=S)Nc2ccccc2-c2cccc(-c3ccccc3NC(=S)Nc3ccc([N+](=O)[O-])cc3)c2)cc1 [1-bis, 1,3-bis[2-(3-(4—Nitrophenyl)thioureido)phenyl]benzene] | about 2 | 28 |  |  |  |  |  | 
2 | O=[N+]([O-])c1ccc(NC(=S)Nc2ccccc2)cc1 [1-mono, 1-(4—Nitrophenyl)-3-phenylthiourea] |  | 12 | 12 |  |  |  |  | 
3 | O=[N+]([O-])c1ccc(NC(=S)Nc2ccccc2-c2cc(-c3ccccc3NC(=S)Nc3ccc([N+](=O)[O-])cc3)cc(-c3ccccc3NC(=S)Nc3ccc([N+](=O)[O-])cc3)c2)cc1 [1-tris, 1,3,5-tris[2-(3-(4—Nitrophenyl)thioureido)phenyl]benzene] |  | 4000 | 35 | > 5e+06 | more than 100 fold | three times more strongly | 1 | low solubility
4 | FC(F)(F)c1cc(NC(=S)Nc2ccccc2-c2cc(-c3ccccc3NC(=S)Nc3cc(C(F)(F)F)cc(C(F)(F)F)c3)cc(-c3ccccc3NC(=S)Nc3cc(C(F)(F)F)cc(C(F)(F)F)c3)c2)cc(C(F)(F)F)c1 [2-tris, 1,3,5-tris[2-(3-(3,5-Trifluoromethylphenyl)thioureido)phenyl]benzene] |  | 10000 |  |  |  |  |  | more soluble
